The structures appear in SMILES notation.

One assay relates to ERBB2. Description: ERBB2 (HER2) flow cytometry protein degradation assay in BT-474 cells. The conditions noted are these: DC50, BT-474 cells, 24 hr. The assay is classed as cell-based, human. The method in brief:
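BT-474 cells trypsinised after compound treatment and stained with PE-conjugated anti-ERBB2 antibody, 30 min at 25° C in the dark, then fixed in 1% paraformaldehyde for flow cytometry. % inhibition = 100−(D−B)/(S−B)*100, using treated, untreated-stained and unstained cell fluorescence.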
(In general: In flow cytometry, cells or beads pass a laser one at a time.)

The target in assay [1] is T1, HSP90α protein (Homo sapiens, UniProt P07900).
T1 construct: purchased BPS Bioscience #50298
The experiment in a line: HSP90α-binding FP (FITC) assay. Particulars: FP competition with FITC-geldanamycin. The method, then: Binding of test compounds to HSP90α protein was measured by fluorescent polarization (FP) using the HSP90α (N-terminal) Assay Kit (BPS Bioscience, #50298), following the manufacturer's instructions, except as noted. Fluorescently labeled HSP90-binding compounds, either the provided FITC-geldanamycin (5 nM final concentration) or RNK04010, a triazolone-based HSP90 binding small molecule labeled with BODIPY through a piperazine-phenyl linker (5 nM final concentration) were employed. A 2.5-fold serial dilution of each test compound ranging from 20 μM to 5.2 nM was assayed for binding to HSP90α. After the final step of adding HSP90α protein to each assay well, plates were mixed by brief shaking, incubated at 25° C. for 120 min for FITC-geldanamycin or 300 min for RNK04010, and fluorescence was measured using a PerkinElmer EnVision Plate Reader.

In assay [2] the test system is U-87 MG human glioblastoma. The experiment in a line: U87 MG CCK-8 proliferation assay. The conditions noted are these: Homo sapiens, U-87 MG, 72 h, U-87 MG cells, read-out: U87MG CCK-8. In kind it is cell-based. The method in brief: (§1)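 Cells cultured per ATCC recommendations and treated with 3-fold serial dilutions of compound from 20 μM to 1.02 nM. Viability by CCK-8 absorbance; % inhibition computed relative to DMSO-treated cells, with cell-free medium plus DMSO as blank.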
In general terms: Tetrazolium assays rely on reduction of a dye to a coloured formazan, in cell work by metabolically active cells.

The test system of assay [3] is MV-4-11 human acute myeloid leukemia. Description: MV-4-11 CCK-8 proliferation assay. The assay is classed as cell-based. Particulars: Homo sapiens, MV4-11; MV-4-11 cells, 72 hr. The essentials:
as §1

The target of assay [4] is T2, MAPK7 (Homo sapiens, UniProt Q13164). The experiment in a line: MAPK7 Western blot protein degradation assay in U-87 MG cells. More on the design: U-87 MG human glioblastoma cells, which express MAPK7; endogenous in cells; host or cells: U-87 MG. The assay is classed as cell-based. Particulars: 48 hr. As to the method:
U-87 MG human glioblastoma cells were seeded in 6- or 12-well tissue culture plates, and after 1 hr, test compounds were added at various concentrations and incubated at 37° C./5% CO2 for 48 hr. Cells were then washed with cold PBS, aspirated and cold RIPA buffer containing a protease/phosphatase inhibitor cocktail was added to lyse cells. After centrifugation, the total protein concentrations of cell lysates were determined using the BCA protein assay. Samples were normalized for equivalent protein concentrations, 5×SDS-PAGE loading buffer added and denatured at 100° C. for 10 min. 20 μl of each sample/well was loaded on a SDS-PAGE gel and electrophoresed for 20 min at 80 V, then 120 V for 1.5 hr. Gels were then electroblotted to nitrocellulose membranes using a wet-transfer method at 250 mA for 2.5 hr. Membranes were incubated with blocking buffer for 1 hr and washed 3 times with TBST for 5 min. Membranes were then incubated with anti-MAPK7 (anti-ERK5; Cell Signaling Technology, #12950) and anti-3-Actin (Cell Signaling Technology, #3700) monoclonal antibodies diluted in blocking buffer at 4° C. overnight per the manufacturer's recommendations. After washing 3 times, blots were incubated with appropriately labeled secondary antibodies for 1 hr at room temperature and washed again. Fluorescence imaging and quantitation was performed using a LI-COR Odyssey. Results was analyzed using GraphPad Prism 7 software.

For assay [5], the target named is T1, HSP90α protein. The experiment in a line: HSP90α-binding FP (BODIPY) assay. The conditions noted are these: FP competition with BODIPY-labeled RNK04010. The method in brief: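 Fluorescence polarization measured competition with N-terminal human HSP90α, using either FITC-geldanamycin or BODIPY-labelled triazolone RNK04010 as tracer (5 nM final each). Compounds were tested in 2.5-fold dilutions from 20 μM to 5.2 nM, with incubation at 25 °C for 120 min (FITC) or 300 min (BODIPY).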

In assay [6] the target is T2, MAPK7. Description: MAPK7 kinase assay (ADP-Glo). More on the design: purchased Carna Biosciences #04-146. In kind it is biochemical. The conditions noted are these: ATP 340 μM. The method, then: The inhibition of MAPK7 kinase activity by test compounds was measured by the ADP-Glo Kinase Assay (Promega, #V6930), following the manufacturer's instructions, except as noted. 3-fold serial dilutions of each test compound were prepared ranging from 50 μM to 2.54 nM. Also, as a positive control, a 4-fold serial dilution of the MAPK7 inhibitor, XMD17-109 (MedChemExpress, #HY-15665) was prepared ranging from 10 μM to 0.04 nM. In brief, in 384-well plates, test compounds were added to the kinase reaction mix containing recombinant MAPK7 protein (Carna Biosciences, #04-146; 20 nM final concentration), myelin basic protein (SignalChem Biotech, #M42-54G; 0.1 mg/ml final concentration) and ATP (340 μM final concentration), then mixed by shaking and incubated with ADP-Glo Reagent and Kinase Detection Reagent. Luminescence was measured on a BioTek plate reader.
Lumpositive: The average ratio for 10 wells of positive controls (10 μM XMD17-109) across the plate.
Lumvehicle: The average ratio for 10 wells of negative controls (0.5% DMSO) across the plate.

T2 sequence (Q13164 whole entry): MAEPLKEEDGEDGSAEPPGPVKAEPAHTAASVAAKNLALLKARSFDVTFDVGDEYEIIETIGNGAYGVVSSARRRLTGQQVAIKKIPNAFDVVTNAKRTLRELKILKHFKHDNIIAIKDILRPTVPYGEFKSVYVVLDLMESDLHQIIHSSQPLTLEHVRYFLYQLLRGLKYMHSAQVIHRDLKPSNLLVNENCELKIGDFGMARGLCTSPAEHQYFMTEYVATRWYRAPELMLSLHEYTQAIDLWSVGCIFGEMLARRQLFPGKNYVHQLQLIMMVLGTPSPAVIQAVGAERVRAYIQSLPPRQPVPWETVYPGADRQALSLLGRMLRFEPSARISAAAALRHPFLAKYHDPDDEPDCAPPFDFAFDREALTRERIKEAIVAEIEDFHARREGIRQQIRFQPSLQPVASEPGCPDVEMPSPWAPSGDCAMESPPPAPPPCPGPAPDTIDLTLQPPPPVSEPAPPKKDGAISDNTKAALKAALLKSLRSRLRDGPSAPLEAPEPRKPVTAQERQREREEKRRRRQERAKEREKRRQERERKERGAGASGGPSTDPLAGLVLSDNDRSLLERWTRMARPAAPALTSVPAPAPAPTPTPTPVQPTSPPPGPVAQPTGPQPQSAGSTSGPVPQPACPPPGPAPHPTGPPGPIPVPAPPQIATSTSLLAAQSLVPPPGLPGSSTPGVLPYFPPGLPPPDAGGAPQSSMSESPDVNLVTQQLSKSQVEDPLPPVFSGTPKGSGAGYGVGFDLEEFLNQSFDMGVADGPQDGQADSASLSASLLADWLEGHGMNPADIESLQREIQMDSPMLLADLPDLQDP

A word on the IC50: it is the concentration that gives 50% inhibition. As to `CCOc1cc(N2CCC(OCC(=O)N3CCN(Cc4ccc(-n5c(O)nnc5-c5cc(C(C)C)c(O)cc5O)cc4)CC3)CC2)ccc1Nc1ncc2c(n1)N(C)c1ccccc1C(=O)N2C` [Compound 001, 2-((4-(4-(2-(4-(4-(3-(2,4-dihydroxy-5-isopropylphenyl)-5-hydroxy-4H-1,2,4-triazol-4-yl)benzyl)piperazin-1-yl)-2-oxoethoxy)piperidin-1-yl)-2-ethoxyphenyl)amino)-5,11-dimethyl-5H-benzo[e]pyrimido[5,4-b][1,4]diazepin-6(11H)-one], in the assay with ERBB2, the ERBB2 degradation result is recorded as “C (DC50 > 1000 nM)”. Besides, at HSP90α protein [1], the IC50 is below 0.1 µM. Further, the figures for the EC50 in assay [2] and in assay [3] were above 1 µM and 0.1 to 1 µM, respectively.

As for `CCOc1cc(N2CCC(OCC(=O)NCCOCCN3CCN(Cc4ccc(-n5c(O)nnc5-c5cc(C(C)C)c(O)cc5O)cc4)CC3)CC2)ccc1Nc1ncc2c(n1)N(C)c1ccccc1C(=O)N2C` [Compound 002, N-(2-(2-(4-(4-(3-(2,4-dihydroxy-5-isopropylphenyl)-5-hydroxy-4H-1,2,4-triazol-4-yl)benzyl)piperazin-1-yl)ethoxy)ethyl)-2-((1-(4-((5,11-dimethyl-6-oxo-6,11-dihydro-5H-benzo[e]pyrimido[5,4-b][1,4]diazepin-2-yl)amino)-3-ethoxyphenyl)piperidin-4-yl)oxy)acetamide], the ERBB2 degradation entry in the assay with ERBB2 is reported as “B (DC50 = 100-1000 nM)”. In addition, the 50% inhibitory concentration (IC50) at HSP90α protein [1] was below 0.1 µM. The results for the EC50 in assay [2] and in assay [3] were 0.1 to 1 µM and below 0.1 µM, respectively.

On to `CCOc1cc(N2CCC(C(=O)NCCOCc3ccc(-n4c(O)nnc4-c4cc(C(C)C)c(O)cc4O)cc3)CC2)ccc1Nc1ncc2c(n1)N(C)c1ccccc1C(=O)N2C` [Compound 005, N-(2-((4-(3-(2,4-dihydroxy-5-isopropylphenyl)-5-hydroxy-4H-1,2,4-triazol-4-yl)benzyl)oxy)ethyl)-1-(4-((5,11-dimethyl-6-oxo-6,11-dihydro-5H-benzo[e]pyrimido[5,4-b][1,4]diazepin-2-yl)amino)-3-ethoxyphenyl)piperidine-4-carboxamide], for which, on MAPK7 [4] (30 nM), the “MAPK7 degradation (30 nM)” value is recorded as “C (< 33% degradation)”. For the same compound, on MAPK7 [4] (100 nM), the “MAPK7 degradation (100 nM)” value is listed as “C (< 33% degradation)”. On MAPK7 [4] (1000 nM), the “MAPK7 degradation (1000 nM)” value is “A (>66% degradation)”. The ERBB2 degradation entry in the assay with ERBB2 is recorded as “B (DC50 = 100-1000 nM)”. At HSP90α protein [1], this compound displayed an IC50 of 0.1 to 1 µM. In addition, the EC50 in assay [2] and in assay [3] was below 0.1 µM in each case.

Take `CCOc1cc(N2CCC(C(=O)NCCOc3cccc(CN(C)Cc4ccc(-n5c(O)nnc5-c5cc(C(C)C)c(O)cc5O)cc4)c3)CC2)ccc1Nc1ncc2c(n1)N(C)c1ccccc1C(=O)N2C` [Compound 007, N-(2-(3-(((4-(3-(2,4-dihydroxy-5-isopropylphenyl)-5-hydroxy-4H-1,2,4-triazol-4-yl)benzyl)(methyl)amino)methyl)phenoxy)ethyl)-1-(4-((5,11-dimethyl-6-oxo-6,11-dihydro-5H-benzo[e]pyrimido[5,4-b][1,4]diazepin-2-yl)amino)-3-ethoxyphenyl)piperidine-4-carboxamide]: in the assay with ERBB2, the ERBB2 degradation entry is listed as “B (DC50 = 100-1000 nM)”. Moreover, at HSP90α protein [1], the IC50 lay within 0.1 to 1 µM. In addition, the EC50 in assay [2] was 0.1 to 1 µM; in assay [3], below 0.1 µM.

With `CCOc1cc(N2CCC(C(=O)N3CCC(COc4ccc(Nc5cc(-n6nc(C(F)(F)F)c7c6CC(C)(C)CC7=O)ccc5C(N)=O)cc4)CC3)CC2)ccc1Nc1ncc2c(n1)N(S(C)(=O)=O)c1ccccc1C(=O)N2C` [Compound 110, 4-(6,6-dimethyl-4-oxo-3-(trifluoromethyl)-4,5,6,7-tetrahydro-1H-indazol-1-yl)-2-((4-((1-(1-(3-ethoxy-4-((5-methyl-11-(methylsulfonyl)-6-oxo-6,11-dihydro-5H-benzo[e]pyrimido[5,4-b][1,4]diazepin-2-yl)amino)phenyl)piperidine-4-carbonyl)piperidin-4-yl)methoxy)phenyl)amino)benzamide], the half-inhibitory concentration (IC50) on HSP90α protein [5] and at MAPK7 [6] was above 1 µM throughout. For the same compound, the EC50 in assay [2] and in assay [3] was above 1 µM each time.

Take `CCOc1cc(N2CCC(C(=O)N3CCC(CN4CCN(CCOc5ccc(Nc6cc(-n7nc(C(F)(F)F)c8c7CC(C)(C)CC8=O)ccc6C(N)=O)cc5)CC4)CC3)CC2)ccc1Nc1ncc2c(n1)N(C)c1ccccc1C(=O)N2C` [Compound 130, 4-(6,6-dimethyl-4-oxo-3-(trifluoromethyl)-4,5,6,7-tetrahydro-1H-indazol-1-yl)-2-((4-(2-(4-((1-(1-(4-((5,11-dimethyl-6-oxo-6,11-dihydro-5H-benzo[e]pyrimido[5,4-b][1,4]diazepin-2-yl)amino)-3-ethoxyphenyl)piperidine-4-carbonyl)piperidin-4-yl)methyl)piperazin-1-yl)ethoxy)phenyl)amino)benzamide]: the concentration for half-maximal inhibition (IC50) at HSP90α protein [1] was above 1 µM. Besides, the results for the EC50 in assay [2] and in assay [3] were above 1 µM and 0.1 to 1 µM, respectively.

At HSP90α protein [1], `CCOc1cc(N2CCC(C(=O)NCCOCCOCCOCCOc3ccc(Nc4cc(-n5nc(C(F)(F)F)c6c5CC(C)(C)CC6=O)ccc4C(N)=O)cc3)CC2)ccc1Nc1ncc2c(n1)N(C)c1ccccc1C(=O)N2C` [Compound 132, N-(2-(2-(2-(2-(4-((2-carbamoyl-5-(6,6-dimethyl-4-oxo-3-(trifluoromethyl)-4,5,6,7-tetrahydro-1H-indazol-1-yl)phenyl)amino)phenoxy)ethoxy)ethoxy)ethoxy)ethyl)-1-(4-((5,11-dimethyl-6-oxo-6,11-dihydro-5H-benzo[e]pyrimido[5,4-b][1,4]diazepin-2-yl)amino)-3-ethoxyphenyl)piperidine-4-carboxamide] yielded a half-maximal inhibitory concentration (IC50) above 1 µM. Moreover, the values for the EC50 in assay [2] and in assay [3] were above 1 µM and 0.1 to 1 µM, respectively.

At MAPK7 [6], `CCOc1cc(N2CCC(C(=O)N3CCC(CN4CCN(Cc5ccc(-n6c(C(=O)NC(C)C(F)(F)F)nnc6-c6cc(CC)c(O)cc6OC)cc5)CC4)CC3)CC2)ccc1Nc1ncc2c(n1)N(S(C)(=O)=O)c1ccccc1C(=O)N2C` (stereo not drawn) [Compound 142, 4-(4-((4-((1-(1-(3-ethoxy-4-((5-methyl-11-(methylsulfonyl)-6-oxo-6,11-dihydro-5H-benzo[e]pyrimido[5,4-b][1,4]diazepin-2-yl)amino)phenyl)piperidine-4-carbonyl)piperidin-4-yl)methyl)piperazin-1-yl)methyl)phenyl)-5-(5-ethyl-4-hydroxy-2-methoxyphenyl)-N-(1,1,1-trifluoropropan-2-yl)-4H-1,2,4-triazole-3-carboxamide] had a concentration for half-maximal inhibition (IC50) of 0.1 to 1 µM.
